How the values were obtained:
Assay type in all cases: cell-based, Human
MDA MB231 cells = test: Microarray of genes upregulated after sialic acid treatment under nutrient deprivation
Method: The membrane glycosylation of the cancer cells is synchronized by the alteration of gene expression. The microarray was performed aiming to identify the genes that had undergone changes induced by the enriched sugar environment. […] Inventors examined the status of the expression of those genes at both transcriptional and translational level, in another word, at mRNA and protein level by performing the quantitative real time polymerase chain reaction (qRT-PCR) and immunoblot. Remarkably, qRT-PCR and Western blot are 2 techniques that are used to quantify the expression of mRNA and protein. Data of qRT-PCR and Western blot were in strong agreement with the microarray data indicating a clear link between the expression of those genes and glycosylation of cell membrane domain. This patent aims to pursue the cancer cell management by targeting those genes at mRNA and protein level. Small interference RNA (siRNA) and small hairpin RNA (shRNA) will be designed to knockdown the mRNA. Similarly, the functions of the genes at protein level will be inhibited or disrupted by using antibody, small peptide, pharmaceutical blocker, and targeted toxin. Regression of cancer cells will be verified following transcriptional and translational manipulation.

T47D = test: Quantification of CMP-Neu5Ac, UDP-GlcNAc, surface Neu5Ac and surface Neu5Gc (HPLC)
Method: (§1) Protocol for nutrient deprivation of cells in suspension: Step 1, cell cultures were harvested as described above. Step 2, cells were resuspended in serum-free RPMI-1640 medium and pelleted by centrifugation at 900×g for 5 min; during this step cells experience 10 min of nutrient deprivation in serum-free media without Neu5Ac. Step 3, the cells were rinsed twice in 37° C. PBS by centrifugation for 5 min and 1 mL aliquots of 1×10^4 cells were pipetted gently into 15 mL BD Falcon tubes; during this step the cells experience an additional 20 min of nutrient-deprivation. Step 3, cell suspension aliquots corresponding to […] were equilibrated in tubes containing Neu5Ac-PBS buffer by placing the tubes with opened caps for 60 min in a humidified incubator at 37° C. and 5% CO2 with continuous shaking at 30 strokes per minute; during this Neu5Ac-supplementation step, negative controls were maintained in non-supplemented PBS. Step 4, the Neu5Ac-PBS solution was decanted, the tubes were gently tapped to loosen the gravity-pelleted cells, and then rinsed twice in warm (37° C.) PBS followed by pelleting by 5 min of centrifugation each time, this process provided an additional 30 min of nutrient-deprivation in the absence of supplemental Neu5Ac. The entire 5 step process results in 2 h of nutrient deprivation, after which the cells were analyzed by the methods listed below with the exception of the wound healing assays and lectin staining which used cells that were nutrient-deprived under adherent conditions. Protocol for nutrient deprivation of adherent cells. Step 1, cells were cultured on sterile glass microscope cover slips for two days. Step 2, the cover slips were placed in a sterile plastic rack in warm (37° C.) PBS buffer for 30 min, then the PBS was replaced with Neu5Ac-PBS solution for 60 min to provide Neu5Ac supplementation (controls were maintained in non-supplemented PBS), and then the cell-laden cover slips were placed back in PBS buffer for 30 min. All incubations were performed in a humidified incubator at 37° C. and 5% CO2 with continuous shaking at 30 strokes per minute. Overall this process mimics the non-adherent treatment conditions with respect to the duration of nutrient-deprivation (2 h total) and Neu5Ac supplementation (60 min).
(§2) Cells were split and cultured (before feeding experiments) in RPMI1640 medium supplemented with 1% heat-inactivated human serum (RPMI/HUS) instead of FBS, resulting in chase-out of existing Neu5Gc. Subsequently, cells were fed with 10 mM Neu5Gc in RPMI/HUS medium or under nutrient deprived conditions as described above.
(§3) PBS-washed cells (1 Million) (untreated or Neu5Ac treated) were lysed by hypotonic shock in 1 mL water (15 min, 4° C.). The intracellular cytidine-5′-monophospho-N-acetylneuraminic acid (CMP-Neu5Ac) and uridine-5′-diphospho-N-acetyl-D-glucosamine (UDP-GlcNAc) were purified from the cell lysates and analyzed by ion-pair reversed-phase high performance liquid chromatography (IP RP HPLC) using a ODS column as described. Cell membrane-bound Neu5Ac (from untreated and Neu5Ac treated) and Neu5Gc (from untreated and Neu5Gc treated) were determined by acid hydrolysis followed by derivatization with 1,2-diamino-4,5-methylenedioxybenze (DMB) and HPLC separation as previously described. The content of CAMP-Neu5Ac, UDP-GlcNAc, surface Neu5Ac, and surface Neu5Gc was shown in nano mole per mg cell protein from five independent experiments.
(§4) Table-1: Quantification of nucleotide sugars, surface Nec5Ac, UDP-GlcNAc, Neu5Gc: Cells were treated in the presence and absence of 10 mM Nue5Ac for 2 h under nutrient deprivation and quantity of CMP-Neu5Ac (A), surface Neu5Ac (B), and UDP-GlcNAc (C) were determined. D. For quantification of surface Neu5Gc cells were treated with 10 mM Neu5Gc for 2 hrs under nutrient deprivation. The content of CMP-Neu5Ac, UDP-GlcNAc and Neu5Gc was shown in nano mole per mg cell protein from 5 independent experiments.

MCF10A = test: as above
Method: as §1, §2, §3, §4

MCF7 = test: as above
Method: as §1, §2, §3, §4

MDA MB231 = test: as above
Method: as §1, §2, §3, §4

HB4A = test: as above
Method: as §1, §2, §3, §4

[1] = system: cancer and normal control cells; test: TUNEL assay flow cytometry of apoptosis after sialic acid treatment
Method: For this purpose, cells were fixed by suspending them in 70% (v/v) ethanol and stored at 4° C. for 15 min, washed twice with cold PBS, and then placed in 96-well plates (1×10^4 cells per well). The cells were then stained with the fluorescein isothiocyanate-labeled lectins (SWGA, WGA, SNA and MAL-1). For the comparison of mean fluorescence intensities, the instrument settings for fluorescence and compensation were the same for all experiments. Data were collected from at least 10,000 cells for each sample. For TUNEL assay, cells were incubated with DNA-labeling solution (10 μL reaction buffer, 0.75 μL TdT enzyme, 8 μL BrdUTP, 31.25 μL of dH2O) for 1 h at 25° C. Each sample was then exposed to an antibody solution consisting of 5 μL Alexa Fluor 488 labeled anti-BrdU antibody with 95 μL rinse solution and allowed to react for 20 min.
FIG. 6: Optimization of conditions for nutrient deprivation and rescue via sialic acid supplementation. […] Data are the representative of five independent experiments.

[2] = system: cancer cells T47D, MCF7, MDA MB231; test: Membrane glycosylation of cancer cells compared to normal control cells (Table 1 summary); details: 10 mM, all the cancer cells compared to control normal cells
Method: as §3
Human normal mammary epithelial cell lines MCF10A and HB4A and breast cancer cell lines T47D, MCF7 and MDA MB231 (American Type Culture Collection, USA) used in the study were cultured and treated according to the methods described earlier. Cells were nutritionally deprived using different time points followed by the sialic acid supplementation according to the method described earlier. […] The data were in strong agreement with the immunoblot data which were derived by assessing different enzymes responsible for glycosylation. […]

[3] = 10 mM sialic acid under nutrient deprivation relative to the untreated control
[4] = treated with 10 mM Neu5Ac for 2 h under nutrient deprivation
[5] = MCF7, treated with 10 mM Neu5Ac for 2 h under nutrient deprivation
[6] = MDA MB231, treated with 10 mM Neu5Ac for 2 h under nutrient deprivation
[7] = treated with 10 mM Neu5Gc for 2 hrs under nutrient deprivation

In the case of CC(=O)N[C@H]1[C@H]([C@H](O)[C@H](O)CO)OC(O)(C(=O)O)C[C@@H]1O (some centres unmarked) [Neu5Ac, N-acetyl-5-neuraminic acid], the “Log2 Ratio, CHI3L2” value (MDA MB231 cells; [3]) was 2.68, the “Log2 Ratio, EQTN” value (MDA MB231 cells; [3]) was 3.078 and the “Log2 Ratio, OSMR” value (MDA MB231 cells; [3]) was 2.215. For the same compound, the “Log2 Ratio, PCMTD1” value (MDA MB231 cells; [3]) was 2.118, the “Log2 Ratio, PHLDA1” value (MDA MB231 cells; [3]) was 2.626 and the “Log2 Ratio, RICTOR” value (MDA MB231 cells; [3]) was 2.334. For the same compound, the “Log2 Ratio, RSRP1” value (MDA MB231 cells; [3]) was 2.33, the “Log2 Ratio, RUNX2” value (MDA MB231 cells; [3]) was 2.21 and the “Log2 Ratio, SCG2” value (MDA MB231 cells; [3]) was 2.171. The “Log2 Ratio, SEC24D” value (MDA MB231 cells; [3]) was 2.199, the “expression of 10 particular genes in sialic acid treated cancer cells” value (MDA MB231 cells; compared to normal control cells) was “more than 5 folds” and the CMP-Neu5Ac (T47D; [4]) was 1.06 ± 1.42 nano mole per mg cell protein. For the same compound, the UDP-GlcNAc (T47D; [4]) was 6.513 ± 5.3 nano mole per mg cell protein, the “surface Neu5Ac” value (T47D; [4]) was 5.07 ± 4.56 and the CMP-Neu5Ac (MCF10A; [4]) was 0.45 ± 1.92 nano mole per mg cell protein. The UDP-GlcNAc (MCF10A; [4]) was 5.18 ± 2.52 nano mole per mg cell protein, the “surface Neu5Ac” value (MCF10A; [4]) was 1.81 ± 2.15 and the CMP-Neu5Ac (MCF7; [5]) was 2.253 ± 1.77 nano mole per mg cell protein. For the same compound, the UDP-GlcNAc (MCF7; [5]) was 12.40 ± 3.66 nano mole per mg cell protein, the “surface Neu5Ac” value (MCF7; [5]) was 7.05 ± 3.95 and the CMP-Neu5Ac (MDA MB231; [6]) was 2.496 ± 2.63 nano mole per mg cell protein. The UDP-GlcNAc (MDA MB231; [6]) was 12.53 ± 4.2 nano mole per mg cell protein, the “surface Neu5Ac” value (MDA MB231; [6]) was 7.12 ± 4.91 and the CMP-Neu5Ac (HB4A; [4]) was 0.51 ± 1.33 nano mole per mg cell protein. The UDP-GlcNAc (HB4A; [4]) was 5.32 ± 7.41 nano mole per mg cell protein, the “surface Neu5Ac” value (HB4A; [4]) was 1.83 ± 2.09 and the apoptosis ([1]; 180 minutes, both cell types, cancer and normal control cells) was “significant apoptosis”. The apoptosis ([1]; 240 minutes, both cell types, cancer and normal control cells) was “significant apoptosis” and the apoptosis ([1]; cells treated for 120 minutes, 10 mM sialic acid, nutrient deprived condition) was “no apoptosis”.
In the case of O=C(CO)N[C@H]1[C@H]([C@H](O)[C@H](O)CO)OC(O)(C(=O)O)C[C@@H]1O (some centres unmarked) [Neu5Gc, N-glycolylneuraminic acid], the glycosylation of membrane [2] was “upregulated the glycosylation significantly”, the “surface Neu5Gc” value (T47D; [7]) was 0.608 ± 0.675 nano mole per mg cell protein and the “surface Neu5Gc” value (MCF10A; [7]) was 0.177 ± 0.31 nano mole per mg cell protein. The “surface Neu5Gc” value (MCF7; MCF7, treated with 10 mM Neu5Gc for 2 hrs under nutrient deprivation) was 1.58 ± 0.912 nano mole per mg cell protein, the “surface Neu5Gc” value (MDA MB231; MDA MB231, treated with 10 mM Neu5Gc for 2 hrs under nutrient deprivation) was 1.79 ± 0.982 nano mole per mg cell protein and the “surface Neu5Gc” value (HB4A; [7]) was 0.182 ± 0.73 nano mole per mg cell protein.
